From patent US20100216795A1, “TNIK INHIBITOR AND THE USE” (priority 2008, published 2010)

Key:
Type in all cases: biochemical
[1] = target: T1, human TNIK (N-terminal segment, TNIK_N) (Homo sapiens, UniProt Q9UKE5); test: TNIK kinase assay (mobility shift); settings: stated in text of Test Example 2
T1 construct: made in house; host or cells: Sf21 insect cells (baculovirus)
From the text: A cDNA encoding the N-terminal segment (TNIK_N, residues 1-314) containing the kinase domain of human TNIK (NM_015028.1) was amplified from cDNA mixture synthesized from human tissue (Biochain) by PCR using the following primers: 5′-[…]-3′ ([SEQ ID NO:1]: forward primer, the underlined nucleotides indicates the location of a EheI site); 5′-[…]-3′ ([SEQ ID NO:2]: reverse primer, the underlined nucleotides indicates the location of a NotI site). The cDNA was subcloned into baculovirus transfer vector pFastBac_GSTb that includes protease cleavage site and glutathione S-transferase purification tag (GST-tag). The plasmid was purified and the insertion of the pFastBac_GSTb-TNIK_N was confirmed by DNA sequencing. Then E. coli DH10Bac competent cells were transformed with the plasmid to prepare the recombinant bacmid according to the instructions for the Bac-to-Bac™ baculovirus expression systems (Invitrogen). The Sf9 cells were transfected with the recombinant bacmid containing pFastBac_GSTb-TNIK_N using Cellfectin Reagent (Invitrogen) in SF-900II serum free media (Invitrogen). The viral supernatant was collected from the medium 72 h after transfection. The virus was amplified three times by infecting actively growing Sf9 or Sf21 cells in Grace's insect media (Invitrogen) supplemented with 10% FCS and an antibiotic-antimycotic reagent (Invitrogen) for 72 h at 27° C. in T-flask or roller bottles. The titer of amplified TNIK_N virus was estimated at 2.36×10^8 pfu/ml by using BacPAK™ Baculovirus Rapid Titer kit (Clontech).
Log-phase Sf21 cells (2×10^6 cells/ml) in the Grace's insect media were infected with the recombinant baculovirus at MOI of 3.0 and incubated in roller bottles (250 ml media per bottle) for 72 h at 27° C., after which, the cells were collected by centrifugation, and the cell pellet washed with cold PBS and kept at −80° C. until purification. The following purification procedures were carried out at 4° C. The frozen cells were thawed on ice and lysed in lysis buffer (50 mM Tris-HCl, pH 7.5, 150 mM NaCl, 1% Nonidet P-40, 5 mM DTT, 0.5 mM EDTA, 0.5 mM EGTA) supplemented with 1 mM phenylmethansulfonylfluoride, 2 μg/ml leupeptin, 2 μg/ml aprotinin, 1 mM NaF, 100 μM sodium orthovanadate, and 1 μM cantharidin by sonication. The suspended lysate was cleared by centrifugation at 9000 g for 20 min and the supernatant was incubated for 1 h with glutathione Sepharose beads (GE Healthcare). The beads were suspended in buffer-H (50 mM Tris-HCl, pH 7.5, 1 M NaCl, 1 mM DTT, 0.5 mM EDTA, 0.5 mM EGTA and 0.05% Brij35) and washed with buffer-H followed by buffer-L (50 mM Tris-HCl, pH 7.5, 150 mM NaCl, 1 mM DTT, 0.5 mM EDTA, 0.5 mM EGTA, 0.05% Brij35) in an Econo-pack column (BIO-RAD). The bound TNIK_N was eluted with elution buffer (50 mM Tris-HCl, pH 8.0, 150 mM NaCl, 1 mM DTT, 10% glycerol, 0.5 mM EDTA, 0.5 mM EGTA and 5 mM reduced glutathione). The eluted fractions were collected and determined the protein concentration by Bradford reagent (BIO-RAD). The TNIK_N fractions were pooled and desalted using 10DG column (BIORAD) equilibrated with the storage buffer (50 mM Tris-HCl, pH 7.5, 150 mM NaCl, 1 mM DTT, 10% glycerol, 0.05% Brij35). The purified TNIK_N was characterized by electrophoresis using 4-20% polyacrylamide gels and matrix-assisted laser desorption/ionization reflection time-of-flight (MALDI-TOF) mass spectrometry on a Voyager-DE RP MALDI/TOF (Applied Biosystems). TNIK_N was confirmed by the molecular weight and MASCOT Peptide Mass Fingerprint.
The kinase assays were conducted in a 20 μl volume using 384-well plates (Greiner). The reaction mixture consists of compound or vehicle (1% DMSO), 0.08 ng/μl TNIK_N, 1 μM FITC-labeled substrate peptides, FITC-x-Lys-Tyr-Lys-Thr-Leu-Arg-Gln ([SEQ ID NO.3], x: ε-aminocaproic acid), 20 mM Hepes, pH 7.5, 0.01% Triton X-100, 5 mM MgCl2, 25 μM ATP and 2 mM DTT. As blank, TNIK_N was excluded from the reaction mixture of vehicle (1% DMSO). […]

CHK1 = target: T2, CHK1 (Homo sapiens, UniProt O14757); test: Selectivity profiling, QuickScout STK Screening Panel
T2 construct: purchased Carna Biosciences
T2 sequence (O14757 whole entry): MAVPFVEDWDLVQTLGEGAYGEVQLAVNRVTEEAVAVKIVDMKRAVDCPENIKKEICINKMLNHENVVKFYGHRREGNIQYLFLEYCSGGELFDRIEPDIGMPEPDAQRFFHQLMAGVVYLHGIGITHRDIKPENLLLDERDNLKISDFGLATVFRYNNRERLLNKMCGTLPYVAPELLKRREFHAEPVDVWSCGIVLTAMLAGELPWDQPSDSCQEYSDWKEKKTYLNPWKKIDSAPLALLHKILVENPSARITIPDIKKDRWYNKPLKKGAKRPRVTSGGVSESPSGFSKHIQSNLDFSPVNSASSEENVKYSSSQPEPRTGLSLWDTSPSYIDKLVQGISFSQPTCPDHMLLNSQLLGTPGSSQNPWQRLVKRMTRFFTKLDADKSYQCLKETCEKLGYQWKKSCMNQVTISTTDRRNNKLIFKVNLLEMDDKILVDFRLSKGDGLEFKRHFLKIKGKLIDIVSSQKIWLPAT
Experimental: (§1) The inhibitory effects of Compound 1 against 20 tyrosine kinases and 30 serine/threonine kinases were investigated using QuickScout™ TK and STK Screening Panel (Carna Biosciences, Kobe Japan). […] The results reveal that Compound 1 inhibits TNIK_N more potently (IC50; 9 nM) than the other 50 kinases.

CK1e = target: T3, CK1e (Homo sapiens, UniProt P49674); test: as above
T3 construct: purchased Carna Biosciences
T3 sequence (P49674 whole entry): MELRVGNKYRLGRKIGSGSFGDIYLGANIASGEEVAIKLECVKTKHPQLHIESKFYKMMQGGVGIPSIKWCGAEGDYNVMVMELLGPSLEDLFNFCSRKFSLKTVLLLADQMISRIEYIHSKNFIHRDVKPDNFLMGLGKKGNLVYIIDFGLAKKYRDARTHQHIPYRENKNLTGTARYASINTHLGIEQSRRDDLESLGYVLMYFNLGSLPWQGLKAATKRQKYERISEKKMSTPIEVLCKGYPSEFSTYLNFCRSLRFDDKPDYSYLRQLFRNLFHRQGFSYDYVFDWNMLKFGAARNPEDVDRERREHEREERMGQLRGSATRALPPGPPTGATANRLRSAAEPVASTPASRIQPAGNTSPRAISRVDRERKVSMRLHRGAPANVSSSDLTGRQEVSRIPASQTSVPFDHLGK
Experimental: as §1

Erk2 = target: T4, Erk2 (Homo sapiens, UniProt P28482); test: as above
T4 construct: purchased Carna Biosciences
T4 sequence (P28482 whole entry): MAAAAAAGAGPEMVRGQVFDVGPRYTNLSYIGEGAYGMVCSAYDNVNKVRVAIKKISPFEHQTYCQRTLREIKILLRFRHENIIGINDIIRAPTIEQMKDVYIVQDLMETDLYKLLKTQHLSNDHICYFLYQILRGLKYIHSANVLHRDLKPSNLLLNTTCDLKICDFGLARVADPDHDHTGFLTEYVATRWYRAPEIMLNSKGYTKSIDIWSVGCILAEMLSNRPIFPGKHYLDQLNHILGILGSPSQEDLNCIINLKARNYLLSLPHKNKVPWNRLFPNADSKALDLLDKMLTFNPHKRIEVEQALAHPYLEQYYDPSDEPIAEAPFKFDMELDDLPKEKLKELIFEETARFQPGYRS
Experimental: as §1

IKKb = target: T5, IKKb (Homo sapiens, UniProt O14920); test: as above
T5 construct: purchased Carna Biosciences
Experimental: as §1

MLK1 = target: T6, MLK1 (Homo sapiens, UniProt P80192); test: as above
T6 construct: purchased Carna Biosciences
T6 sequence (P80192 whole entry): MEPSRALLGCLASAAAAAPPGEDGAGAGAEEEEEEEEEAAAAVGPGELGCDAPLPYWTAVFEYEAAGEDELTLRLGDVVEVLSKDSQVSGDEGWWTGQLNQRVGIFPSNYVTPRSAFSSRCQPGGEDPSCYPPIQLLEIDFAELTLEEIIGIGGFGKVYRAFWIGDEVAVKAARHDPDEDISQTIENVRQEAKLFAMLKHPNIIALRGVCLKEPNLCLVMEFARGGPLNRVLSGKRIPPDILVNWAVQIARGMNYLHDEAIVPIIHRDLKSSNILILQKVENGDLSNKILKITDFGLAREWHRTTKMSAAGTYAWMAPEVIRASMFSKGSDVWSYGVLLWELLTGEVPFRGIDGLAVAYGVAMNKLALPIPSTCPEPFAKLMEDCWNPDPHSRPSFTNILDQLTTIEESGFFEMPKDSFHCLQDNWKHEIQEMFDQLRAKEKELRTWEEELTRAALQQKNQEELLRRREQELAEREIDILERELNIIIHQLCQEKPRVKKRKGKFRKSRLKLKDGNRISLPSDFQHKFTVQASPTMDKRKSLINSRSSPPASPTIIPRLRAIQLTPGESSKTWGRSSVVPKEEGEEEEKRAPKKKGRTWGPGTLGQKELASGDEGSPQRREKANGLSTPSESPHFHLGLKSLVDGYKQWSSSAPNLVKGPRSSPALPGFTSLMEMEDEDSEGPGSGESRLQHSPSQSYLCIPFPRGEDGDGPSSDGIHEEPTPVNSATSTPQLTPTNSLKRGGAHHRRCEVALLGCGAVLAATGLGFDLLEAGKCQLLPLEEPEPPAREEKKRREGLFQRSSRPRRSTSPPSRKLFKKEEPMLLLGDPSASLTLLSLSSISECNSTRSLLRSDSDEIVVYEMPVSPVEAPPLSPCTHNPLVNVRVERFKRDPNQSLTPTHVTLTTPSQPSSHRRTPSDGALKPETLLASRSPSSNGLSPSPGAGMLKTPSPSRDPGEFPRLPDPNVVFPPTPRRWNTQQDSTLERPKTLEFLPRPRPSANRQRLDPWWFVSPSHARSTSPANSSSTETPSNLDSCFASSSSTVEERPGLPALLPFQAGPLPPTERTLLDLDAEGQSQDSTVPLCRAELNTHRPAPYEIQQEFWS
Experimental: as §1

NEK2 = target: T7, NEK2 (Homo sapiens, UniProt P51955); test: as above
T7 construct: purchased Carna Biosciences
Experimental: as §1

PDK1 = target: T8, PDK1 (Homo sapiens, UniProt O15530); test: as above
T8 construct: purchased Carna Biosciences
T8 sequence (O15530 whole entry): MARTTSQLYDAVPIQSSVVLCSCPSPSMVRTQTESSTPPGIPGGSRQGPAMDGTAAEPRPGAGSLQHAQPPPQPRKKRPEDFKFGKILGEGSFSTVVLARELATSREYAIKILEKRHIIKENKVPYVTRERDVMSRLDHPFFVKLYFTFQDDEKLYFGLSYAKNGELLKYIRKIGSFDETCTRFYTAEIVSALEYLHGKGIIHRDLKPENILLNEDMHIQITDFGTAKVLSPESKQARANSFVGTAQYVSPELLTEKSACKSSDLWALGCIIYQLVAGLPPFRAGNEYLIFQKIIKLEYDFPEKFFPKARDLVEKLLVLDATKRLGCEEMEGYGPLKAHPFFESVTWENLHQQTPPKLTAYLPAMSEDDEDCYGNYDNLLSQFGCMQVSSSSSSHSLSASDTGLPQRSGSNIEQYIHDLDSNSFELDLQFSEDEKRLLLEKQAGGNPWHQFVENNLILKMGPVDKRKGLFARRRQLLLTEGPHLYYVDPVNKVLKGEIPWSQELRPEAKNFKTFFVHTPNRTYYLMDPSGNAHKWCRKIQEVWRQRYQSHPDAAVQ
Experimental: as §1

PKACa = target: T9, PKACa (Homo sapiens, UniProt P17612); test: as above
T9 construct: purchased Carna Biosciences
Experimental: as §1

PKCa = target: T10, PKCa (Homo sapiens, UniProt P17252); test: as above
T10 construct: purchased Carna Biosciences
Experimental: as §1

PKD2 = target: T11, PKD2 (Homo sapiens, UniProt Q9BZL6); test: as above
T11 construct: purchased Carna Biosciences
Experimental: as §1

ROCK1 = target: T12, ROCK1 (Homo sapiens, UniProt Q13464); test: as above
T12 construct: purchased Carna Biosciences
Experimental: as §1

SGK = target: T13, SGK (Homo sapiens, UniProt O00141); test: as above
T13 construct: purchased Carna Biosciences
T13 sequence (O00141 whole entry): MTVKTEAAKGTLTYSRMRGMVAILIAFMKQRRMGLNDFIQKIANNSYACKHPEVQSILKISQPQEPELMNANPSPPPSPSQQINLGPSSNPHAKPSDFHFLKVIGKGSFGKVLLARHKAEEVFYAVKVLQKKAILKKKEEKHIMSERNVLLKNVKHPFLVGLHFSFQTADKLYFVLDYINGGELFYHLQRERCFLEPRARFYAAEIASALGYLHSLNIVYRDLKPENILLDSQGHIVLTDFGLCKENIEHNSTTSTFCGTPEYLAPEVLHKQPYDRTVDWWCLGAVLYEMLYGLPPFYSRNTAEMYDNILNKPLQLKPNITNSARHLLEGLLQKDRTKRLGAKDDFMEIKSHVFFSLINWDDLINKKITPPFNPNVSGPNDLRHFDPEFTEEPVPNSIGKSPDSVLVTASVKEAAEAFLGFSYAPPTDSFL
Experimental: as §1

p38a = target: T14, p38a (Homo sapiens, UniProt Q16539); test: as above
T14 construct: purchased Carna Biosciences
T14 sequence (Q16539 whole entry): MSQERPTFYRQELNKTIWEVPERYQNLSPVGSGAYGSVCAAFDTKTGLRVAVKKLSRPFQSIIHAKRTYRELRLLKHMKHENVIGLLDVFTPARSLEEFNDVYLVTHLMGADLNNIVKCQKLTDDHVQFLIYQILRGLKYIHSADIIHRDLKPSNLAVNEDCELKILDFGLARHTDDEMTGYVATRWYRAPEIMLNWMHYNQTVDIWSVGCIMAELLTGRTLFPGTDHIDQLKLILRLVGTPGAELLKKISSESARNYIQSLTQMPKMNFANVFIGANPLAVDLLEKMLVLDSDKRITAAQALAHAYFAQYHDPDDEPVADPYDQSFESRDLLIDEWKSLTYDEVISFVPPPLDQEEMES
Experimental: as §1

T1 sequence (Q9UKE5 1-314): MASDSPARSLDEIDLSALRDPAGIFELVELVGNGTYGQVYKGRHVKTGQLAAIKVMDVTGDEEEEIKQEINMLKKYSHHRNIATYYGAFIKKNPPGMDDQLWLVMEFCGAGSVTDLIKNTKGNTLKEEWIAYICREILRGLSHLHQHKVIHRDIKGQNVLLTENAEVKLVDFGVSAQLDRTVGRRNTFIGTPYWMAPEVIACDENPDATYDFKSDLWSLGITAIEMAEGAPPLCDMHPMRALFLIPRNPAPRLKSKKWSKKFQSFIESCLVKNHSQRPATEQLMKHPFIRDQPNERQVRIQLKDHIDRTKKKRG

IC50 [1]: 9 nM | IC50 (CHK1): > 300 nM | IC50 (CK1e): > 300 nM | IC50 (Erk2): > 300 nM | IC50 (IKKb): > 300 nM | IC50 (MLK1): 18 nM | IC50 (NEK2): > 300 nM | IC50 (PDK1): > 300 nM | IC50 (PKACa): > 300 nM | IC50 (PKCa): > 300 nM | IC50 (PKD2): > 300 nM | IC50 (ROCK1): > 300 nM | IC50 (SGK): > 300 nM | IC50 (p38a): > 300 nM
Compound: CC(=O)Nc1ccc(C(=O)Nc2sc(Nc3ccccc3)nc2C(N)=O)cc1 [Compound 1, 5-(4-acetamidobenzamido)-2-(phenylamino)thiazole-4-carboxamide]
